Data on 30 compounds can be found in US20140163026A1, “8-ETHYL-6-(ARYL)PYRIDO[2,3-D]PYRIMIDIN-7(8H)-ONES FOR THE TREATMENT OF NERVOUS SYSTEM DISORDERS AND CANCER” (Afraxis Holdings, Inc., priority 2011, published 2014).

Where only a bound is given, the exact number is not on record here.

What all share (format): biochemical
The target of one experiment is PAK2 (PAK65) (Homo sapiens, UniProt Q13177). The experiment in a line: In vitro PAK inhibition assay (SelectScreen, Ser/Thr 20 peptide). The procedure:
(§1) Compounds are screened in 1% DMSO (final) in the well. For 10 point titrations, 3-fold serial dilutions are conducted.
(§2) All Peptide/Kinase Mixtures are diluted to a 2× working concentration in the appropriate Kinase Buffer
The 2×PAK2 (PAK65)/Ser/Thr 20 mixture is prepared in 50 mM HEPES pH 7.5, 0.01% BRIJ-35, 10 mM MgCl2, 1 mM EGTA. The final 10 μL Kinase Reaction consists of 0.29-6 ng PAK2 (PAK65) and 2 μM Ser/Thr 20 in 50 mM HEPES pH 7.5, 0.01% BRIJ-35, 10 mM MgCl2, 1 mM EGTA.
(§3) This control yields 100% cleaved peptide in the Development Reaction.
(§4) The 100% Phosphorylation Control, which consists of a synthetically phosphorylated peptide of the same sequence as the peptide substrate, is designed to allow for the calculation of percent phosphorylation.
(§5) This control is designed to produce a 10-50%* phosphorylated peptide in the Kinase Reaction.
(§6) A known inhibitor control standard curve, 10 point titration, is run for each individual kinase on the same plate as the kinase to ensure the kinase is inhibited within an expected IC50 range previously determined.
(§7) Add the following solutions to a well in a 384-well plate: • 2.5 μL of 4× Test Compound OR (100 nL 100× Test Compound plus 2.4 μL kinase buffer) • 5 μL of 2× Peptide/Kinase (PAK) Mixture • 2.5 μL of 4×ATP Solution • 2. Shake the plate for 30-seconds • 3. Incubate the PAK Kinase Reaction at room temperature for 60-minutes • 4. Add 5 μL of Development Reagent Solution to each well • 5. Shake the plate for 30-seconds • 6. Incubate the Development Reaction for 60-minutes • 7. Determine the fluorescence using a fluorescence plate reader • 8. Analyze the fluorescence data
(§8) SelectScreen® Kinase Profiling Service uses XLfit from IDBS.
(§9) The representative IC50 value with a known inhibitor for each kinase was determined at the ATP bin nearest to the ATP Km app.

A further experiment concerns the target PAK1 (Homo sapiens, UniProt Q13153). Description: In vitro PAK inhibition assay (SelectScreen, Ser/Thr 19 peptide). As to the method:
as §1, §2
The 2×PAK1/Ser/Thr 19 mixture is prepared in 50 mM HEPES pH 7.5, 0.01% BRIJ-35, 10 mM MgCl2, 1 mM EGTA.
as §3, §4, §5, §6, §7, §8, §9

A further experiment addresses PAK4 (Homo sapiens, UniProt O96013). Description: In vitro PAK inhibition assay (SelectScreen, Ser/Thr 20 peptide). As to the method: as §1, §2
The 2×PAK4/Ser/Thr 20 mixture is prepared in 50 mM HEPES pH 7.5, 0.01% BRIJ-35, 10 mM MgCl2, 1 mM EGTA. The final 10 μL Kinase Reaction consists of 0.1-0.75 ng PAK4 and 2 μM Ser/Thr 20 in 50 mM HEPES pH 7.5, 0.01% BRIJ-35, 10 mM MgCl2, 1 mM EGTA. After the 1 hour Kinase Reaction incubation, 5 μL of a 1:256 dilution of Development Reagent A is added.
as §3, §4
The minimum Emission Ratio in a screen is established by the 0% Inhibition Control, which contains active kinase. This control is designed to produce a 10-50%* phosphorylated peptide in the Kinase Reaction.
as §6
as §7, with “Bar-coded Corning, low volume NBS, black 384-well plate (Corning Cat. #3676) • 1. Add the” for “Add the”
SelectScreen® Kinase Profiling Service uses XLfit from IDBS. The dose response curve is curve fit to model number 205 (sigmoidal dose-response model).
The table below provides specifications and data around each kinase. The representative IC50 value with a known inhibitor for each kinase was determined at the ATP bin nearest to the ATP Km app.

For another experiment, the target named is PAK3 (Homo sapiens, UniProt O75914). The experiment is described as above. The procedure: as §1, §2
The 2×PAK3/Ser/Thr 20 mixture is prepared in 50 mM HEPES pH 7.5, 0.01% BRIJ-35, 10 mM MgCl2, 1 mM EGTA.
as §3, §4, §5, §6, §7, §8, §9

PAK1, sequence (Q13153 whole entry): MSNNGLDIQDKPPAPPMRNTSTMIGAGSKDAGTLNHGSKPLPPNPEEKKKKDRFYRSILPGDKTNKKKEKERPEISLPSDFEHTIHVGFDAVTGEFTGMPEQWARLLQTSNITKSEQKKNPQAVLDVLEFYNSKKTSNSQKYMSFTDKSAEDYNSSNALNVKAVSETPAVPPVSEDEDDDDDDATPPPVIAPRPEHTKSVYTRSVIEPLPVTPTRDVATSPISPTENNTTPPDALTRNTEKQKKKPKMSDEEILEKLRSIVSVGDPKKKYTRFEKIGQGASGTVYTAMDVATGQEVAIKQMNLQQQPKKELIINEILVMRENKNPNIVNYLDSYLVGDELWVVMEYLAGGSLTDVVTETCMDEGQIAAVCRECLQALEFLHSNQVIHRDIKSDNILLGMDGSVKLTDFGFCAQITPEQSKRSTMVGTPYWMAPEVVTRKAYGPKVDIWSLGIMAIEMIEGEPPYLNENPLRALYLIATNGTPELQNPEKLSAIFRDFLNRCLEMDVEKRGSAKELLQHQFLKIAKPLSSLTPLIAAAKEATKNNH
PAK4, sequence (O96013 whole entry): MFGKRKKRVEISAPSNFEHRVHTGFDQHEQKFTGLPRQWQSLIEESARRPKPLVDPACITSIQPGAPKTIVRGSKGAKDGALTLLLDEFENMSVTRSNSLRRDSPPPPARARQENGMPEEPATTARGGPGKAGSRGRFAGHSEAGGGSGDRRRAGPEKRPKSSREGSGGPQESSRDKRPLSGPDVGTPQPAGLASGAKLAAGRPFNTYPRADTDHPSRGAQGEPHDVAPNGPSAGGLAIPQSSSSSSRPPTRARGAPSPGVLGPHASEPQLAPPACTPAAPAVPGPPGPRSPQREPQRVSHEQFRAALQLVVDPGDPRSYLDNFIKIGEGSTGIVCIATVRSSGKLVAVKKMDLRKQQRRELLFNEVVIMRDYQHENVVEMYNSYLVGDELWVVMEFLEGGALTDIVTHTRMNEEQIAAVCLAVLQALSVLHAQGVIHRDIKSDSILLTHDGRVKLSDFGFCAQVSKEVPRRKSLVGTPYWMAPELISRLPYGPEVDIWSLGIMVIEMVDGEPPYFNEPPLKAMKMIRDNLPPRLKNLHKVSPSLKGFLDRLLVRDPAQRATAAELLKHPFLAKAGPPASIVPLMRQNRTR
PAK3, sequence (O75914 whole entry): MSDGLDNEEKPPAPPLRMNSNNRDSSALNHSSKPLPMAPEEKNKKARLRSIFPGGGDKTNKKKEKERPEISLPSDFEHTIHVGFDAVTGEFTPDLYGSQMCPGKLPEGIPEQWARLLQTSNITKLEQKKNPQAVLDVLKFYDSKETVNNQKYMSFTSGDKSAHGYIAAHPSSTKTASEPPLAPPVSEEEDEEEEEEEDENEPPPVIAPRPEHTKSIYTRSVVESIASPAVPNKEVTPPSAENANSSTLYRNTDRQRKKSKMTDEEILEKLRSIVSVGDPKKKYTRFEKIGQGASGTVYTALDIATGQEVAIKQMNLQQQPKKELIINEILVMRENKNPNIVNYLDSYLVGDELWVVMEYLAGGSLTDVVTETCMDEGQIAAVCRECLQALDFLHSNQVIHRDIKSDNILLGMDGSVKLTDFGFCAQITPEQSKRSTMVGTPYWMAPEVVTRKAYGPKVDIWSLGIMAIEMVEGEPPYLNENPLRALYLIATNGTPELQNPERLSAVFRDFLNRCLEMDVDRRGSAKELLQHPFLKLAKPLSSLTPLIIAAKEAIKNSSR
PAK2 (PAK65), sequence (Q13177 whole entry): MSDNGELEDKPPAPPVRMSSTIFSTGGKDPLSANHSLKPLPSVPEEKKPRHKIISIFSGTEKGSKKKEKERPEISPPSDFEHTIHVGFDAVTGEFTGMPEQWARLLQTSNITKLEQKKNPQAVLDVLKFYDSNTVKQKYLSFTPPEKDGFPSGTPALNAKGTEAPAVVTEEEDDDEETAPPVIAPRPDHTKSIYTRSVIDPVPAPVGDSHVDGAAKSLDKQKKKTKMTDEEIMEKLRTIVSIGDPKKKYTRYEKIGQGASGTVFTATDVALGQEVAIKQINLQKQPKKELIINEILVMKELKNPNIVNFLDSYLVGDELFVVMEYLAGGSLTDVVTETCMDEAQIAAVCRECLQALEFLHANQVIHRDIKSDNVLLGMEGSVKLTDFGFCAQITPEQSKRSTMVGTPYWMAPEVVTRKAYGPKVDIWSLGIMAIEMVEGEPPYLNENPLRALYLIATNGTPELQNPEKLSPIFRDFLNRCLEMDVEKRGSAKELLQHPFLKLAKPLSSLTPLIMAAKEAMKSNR

In general, IC50 refers to the concentration that inhibits the measured activity by half. A high value points to weaker potency in that assay. Take `CCn1c(=O)c(-c2ccc(-c3ccncc3)cc2Cl)cc2cnc(Nc3ccc(N4CCN(C)CC4)cc3)nc21`: the IC50 at PAK2 (PAK65) is less than 50 nM; on PAK1 it was less than 50 nM; against PAK4 it was no less than 5 µM; on PAK3, less than 50 nM.

For the compound `CC(=O)N(C)c1ccc(-c2ccc(Cl)c(-c3cc4cnc(Nc5ccc(C6CCN(C)CC6)cc5)nc4n(C)c3=O)c2)cn1`, the IC50 against PAK2 (PAK65) is greater than 5000 nM; at PAK1, greater than 5000 nM; at PAK4, no less than 5 µM; on PAK3, greater than 5000 nM.

Regarding `Cc1ncccc1-c1ccc(-c2cc3cnc(Nc4ccc(CCN(C)C)cc4)nc3n(C)c2=O)c(Cl)c1`, the half-inhibitory concentration (IC50) is 50 to 500 nM against PAK2 (PAK65), less than 50 nM against PAK1, no less than 5 µM against PAK4 and 50 to 500 nM against PAK3.

`CCn1c(=O)c(-c2ccc(-c3cncs3)cc2Cl)cc2cnc(Nc3ccc(N4CCN(C)CC4)c(F)c3)nc21`: the IC50 at PAK2 (PAK65) was less than 50 nM; on PAK1, less than 50 nM; against PAK4, no less than 5 µM; against PAK3, less than 50 nM.

As for `CCn1c(=O)c(-c2ccc(-c3nccs3)cc2Cl)cc2cnc(Nc3ccc(N4CCN(C)CC4)cc3)nc21`, the IC50 on PAK2 (PAK65) was less than 50 nM; on PAK1 it was less than 50 nM; against PAK4, 0.5 to 5 µM; against PAK3, less than 50 nM.

Turning to `CCn1c(=O)c(-c2ccc(-c3ccc(C)nc3F)cc2Cl)cc2cnc(Nc3ccc(C4CCNCC4)cc3)nc21`, the IC50 against PAK2 (PAK65) is less than 50 nM; against PAK1, less than 50 nM; at PAK4, 0.5 to 5 µM; at PAK3, 50 to 500 nM.

For the compound `CCn1c(=O)c(-c2nc(C3CCN(C(C)=O)CC3)sc2C)cc2cnc(Nc3ccc(N4CCN(C)CC4)cc3)nc21`, the IC50 is greater than 5000 nM at PAK2 (PAK65), greater than 5000 nM against PAK1, no less than 5 µM on PAK4 and greater than 5000 nM against PAK3.

For the compound `CN1CCC(c2ccc(Nc3ncc4cc(-c5cc(-c6ccccn6)ccc5Cl)c(=O)n(C)c4n3)cc2)CC1`, the concentration for half-maximal inhibition (IC50) against PAK2 (PAK65) was 500 to 5000 nM; against PAK1, 50 to 500 nM; at PAK4, no less than 5 µM; against PAK3 it was 50 to 500 nM.

For `CN1CCC(c2ccc(Nc3ncc4cc(-c5cc(-c6cccnc6)ccc5Cl)c(=O)n(C)c4n3)cc2)CC1`, the IC50 was 500 to 5000 nM against PAK2 (PAK65), 50 to 500 nM on PAK1, no less than 5 µM against PAK4 and 500 to 5000 nM on PAK3.

With `CCn1c(=O)c(-c2ccc(-c3ccc(C)nc3)cc2Cl)cc2cnc(Nc3ccc(N4CCN(C)CC4)cc3)nc21`, the concentration for half-maximal inhibition (IC50) against PAK2 (PAK65) is less than 50 nM; on PAK1, less than 50 nM; against PAK4, 0.5 to 5 µM; against PAK3, 50 to 500 nM.

Consider `CCc1cc(-c2ccc(-c3cc4cnc(Nc5ccc(C6CCN(C)CC6)cc5)nc4n(CC)c3=O)c(Cl)c2)ncn1`, for which the IC50 is less than 50 nM against PAK2 (PAK65), less than 50 nM against PAK1, no less than 5 µM at PAK4 and 50 to 500 nM on PAK3.

Consider `CCn1c(=O)c(-c2ccc(-c3cccnc3)cc2Cl)cc2cnc(Nc3ccc(CN(C)C)cc3)nc21`, for which the IC50 at PAK2 (PAK65) is less than 50 nM; on PAK1, less than 50 nM; at PAK4 it was 0.5 to 5 µM; at PAK3 it was less than 50 nM.

For the compound `CCn1c(=O)c(-c2ccc(-c3ccc(C)nc3)cc2Cl)cc2cnc(Nc3ccc(C4CCN(C(C)C)CC4)cc3)nc21`, the IC50 at PAK2 (PAK65) is less than 50 nM; on PAK1, less than 50 nM; against PAK4, no less than 5 µM; at PAK3, 50 to 500 nM.

In the case of `CCn1c(=O)c(-c2ccc(-c3cccnc3C)cc2Cl)cc2cnc(Nc3ccc(C4=CCNCC4)cc3)nc21`, the IC50 against PAK2 (PAK65) was less than 50 nM; against PAK1, less than 50 nM; at PAK4, 0.5 to 5 µM; on PAK3, less than 50 nM.

On to `CC(=O)Nc1ncccc1-c1ccc(Cl)c(-c2cc3cnc(Nc4ccc(C5CCN(C)CC5)cc4)nc3n(C)c2=O)c1`, for which the IC50 was 50 to 500 nM against PAK2 (PAK65), 50 to 500 nM against PAK1, no less than 5 µM on PAK4 and 500 to 5000 nM on PAK3.

`CCn1c(=O)c(-c2ccc(-c3cccnc3C)cc2Cl)cc2cnc(Nc3ccc(CCN4CCCC4)cc3)nc21`: the concentration for half-maximal inhibition (IC50) against PAK2 (PAK65) was less than 50 nM; on PAK1, less than 50 nM; against PAK4, no less than 5 µM; at PAK3, 50 to 500 nM.

For `CCn1c(=O)c(-c2ccc(-c3ccccc3F)cc2Cl)cc2cnc(Nc3ccc(C4CCN(C)CC4)cc3)nc21`, the IC50 was less than 50 nM on PAK2 (PAK65), less than 50 nM against PAK1, 0.5 to 5 µM against PAK4 and less than 50 nM against PAK3.

For the compound `CCn1c(=O)c(-c2ccc(-c3ccn[nH]3)cc2)cc2cnc(Nc3ccc(N4CCN(C)CC4)cc3)nc21`, the IC50 against PAK2 (PAK65) was 50 to 500 nM; against PAK1, 500 to 5000 nM; on PAK4 it was no less than 5 µM; at PAK3 it was 500 to 5000 nM.

`CCn1c(=O)c(-c2ccc(-c3cccnc3)cc2Cl)cc2cnc(Nc3ccc(N4CCN(C(C)C)CC4)cc3)nc21` [drawing 655]: the half-maximal inhibitory concentration (IC50) against PAK2 (PAK65) was less than 50 nM; against PAK1, less than 50 nM; at PAK4, 0.05 to 0.5 µM; against PAK3, less than 50 nM.

On to `CCn1c(=O)c(-c2ccc(-c3ccc(C(=O)NC)nc3)cc2Cl)cc2cnc(Nc3ccc(C4CCN(C)CC4)cc3)nc21`, for which the half-inhibitory concentration (IC50) against PAK2 (PAK65) is 50 to 500 nM; against PAK1, 500 to 5000 nM; against PAK4, no less than 5 µM; against PAK3, greater than 5000 nM.

Turning to `CCn1c(=O)c(-c2ccc(-c3noc(C(F)(F)F)n3)cc2Cl)cc2cnc(Nc3ccc(N4CCN(C(C)C)CC4)cc3)nc21`, the IC50 at PAK2 (PAK65) was less than 50 nM; against PAK1, less than 50 nM; against PAK4, no less than 5 µM; at PAK3, less than 50 nM.

In the case of `CCn1c(=O)c(-c2ccc(-c3cnn(C)c3)cc2Cl)cc2cnc(Nc3ccc(N4CCN(C)CC4)cc3)nc21`, the IC50 was less than 50 nM against PAK2 (PAK65), less than 50 nM on PAK1, no less than 5 µM against PAK4 and 50 to 500 nM against PAK3.

Turning to `CCn1c(=O)c(-c2ccc(-c3cccnc3C)cc2Cl)cc2cnc(Nc3ccc(C4CCNCC4)c(F)c3)nc21`, the IC50 was less than 50 nM against PAK2 (PAK65), less than 50 nM against PAK1, 0.5 to 5 µM against PAK4 and 50 to 500 nM against PAK3.

`CCn1c(=O)c(-c2ccc(-c3cccnc3C)cc2C)cc2cnc(Nc3ccc(C4CCN(C)CC4)cc3)nc21`: the IC50 was 50 to 500 nM against PAK2 (PAK65), less than 50 nM against PAK1, no less than 5 µM against PAK4 and 50 to 500 nM on PAK3.

For `CC(=O)Nc1ccc(-c2ccc(Cl)c(-c3cc4cnc(Nc5ccc(C6CCN(C)CC6)cc5)nc4n(C)c3=O)c2)cn1`, the IC50 against PAK2 (PAK65) was greater than 5000 nM; against PAK1, greater than 5000 nM; against PAK4, 0.5 to 5 µM; on PAK3, greater than 5000 nM.

Turning to `CCn1c(=O)c(-c2ccc(-c3cnc(C)s3)cc2Cl)cc2cnc(Nc3ccc(C4CCNCC4)cc3)nc21`, the IC50 on PAK3 lay in the range of 50 to 500 nM.

Take `CCn1c(=O)c(-c2ccc(-c3ccnc(C)c3)cc2Cl)cc2cnc(Nc3ccc(C4CCNCC4)c(F)c3)nc21`: the IC50 on PAK2 (PAK65) and at PAK1 was 50 to 500 nM in each case.

Regarding `CCn1c(=O)c(-c2ccc(-c3noc(C)n3)cc2Cl)cc2cnc(Nc3ccc(C4CCNCC4)cc3)nc21`, on PAK3, the IC50 is less than 50 nM.

With `CCn1c(=O)c(-c2ccc(-c3cccnc3C)cc2Cl)cc2cnc(Nc3ccc(C4CCNCC4)cc3)nc21`, the IC50 on PAK3 lay within 50 to 500 nM.

`CCn1c(=O)c(-c2ccc(-c3cccnc3F)cc2Cl)cc2cnc(Nc3ccc(C4CCNCC4)cc3)nc21` returned an IC50 against PAK4 of 0.5 to 5 µM.
